Source: US20250099474A1 (priority 2022, published 2025)
Like-named read-outs stand apart in the source and are kept apart here.

Experiments:
[1] = tested on: SARS-CoV-2; assay: Phase 2/3 study, Phase 2a Part: COVID-19 symptom score and exacerbation (Ordinal scale); format: in vivo, human; conditions: mild/moderate patients
Experimental: (§1) The 750/250 mg group received 750 mg on Day 1 as a loading dose and 250 mg on Days 2 to 5 as a maintenance dose.

[2] = tested on: SARS-CoV-2; format: in vivo, human; conditions: Phase 3 Part; for Time to resolution of five COVID-19 symptoms: Maximum value: +: includes censored data
Experimental: The primary endpoint of Phase 3 Part was the time to resolution of five COVID-19 symptoms in mild/moderate SARS-CoV-2-infected patients, and the efficacy was verified by evaluation of the five COVID-19 symptoms in four grades (0: none, 1: mild, 2: moderate, 3: severe) by the patients themselves.
as §1
The primary efficacy endpoint of Phase 3 Part for mild/moderate SARS-CoV-2-infected patients was the time to resolution of the five COVID-19 symptoms.
Existing symptoms that existed before the onset of COVID-19 and were determined by the subject to be worsening at the baseline (pre-administration test) time point had to be improved […] from the severity at the baseline time point. • Severity at baseline was “severe”→“moderate”, “mild”, or “none” • Severity at baseline was “moderate”→“mild”, or “none” • Severity at baseline was “mild”→[…] “none” • Existing symptoms that existed before the onset of COVID-19 and were determined by the subject not to be worsening at the baseline (pre-administration test) time point had to be maintained or improved from the severity at the baseline time point. • Severity at baseline was “severe”->“severe”, “moderate”, “mild”, or “none” • Severity at baseline was “moderate”->“moderate”, “mild”, or “none” • Severity at baseline was “mild”→“mild”, or “none” • Regarding symptoms other than the above, that is, symptoms that were not present before the onset of COVID-19 and developed at or after the baseline (pre-administration test) time point, such symptoms had to be eliminated. • Severity at baseline was “severe”, “moderate”, or “mild”→“none”
As the key secondary analysis of the primary endpoint, the same analysis as the primary analysis was performed for the population of the mild/moderate SARS-CoV-2-infected patients in the ITT population.

[3] = ITT, onset to randomization less than 72 hours, 375/125 mg group
[4] = mild/moderate patients, ITT population, 375/125 mg group
[5] = mild/moderate patients, ITT population, 750/250 mg group
[6] = mild/moderate patients, ITT, onset to randomization less than 72 hours, 375/125 mg group

Cn1cnc(Cn2c(=O)[nH]/c(=N\c3cc4cn(C)nc4cc3Cl)n(Cc3cc(F)c(F)cc3F)c2=O)n1 [(6E)-6-[(6-chloro-2-methyl-2H-indazol-5-yl)imino]-3-[(1-methyl-1H-1,2,4-triazol-3-yl)methyl]-1-[(2,4,5-trifluorophenyl)methyl]-1,3,5-triazinane-2,4-dione]
Exacerbation rate (Ordinal scale deteriorated to 3 or more for the first time) ([1]; 375/125 mg group): 0.0%
Number of exacerbations/number of cases to be analyzed ([1]; 375/125 mg group): 0/13
Change from baseline in total score of 12 COVID-19 symptoms compared to placebo group ([1]; 375/125 mg group and 750/250 mg group, all time points on Day 2 and thereafter, FIG. 6): tendency for the total score of the twelve COVID-19 symptoms to numerically improve
Exacerbation rate (Ordinal scale deteriorated to 3 or more for the first time) ([1]; 750/250 mg group): 0.0%
Number of exacerbations/number of cases to be analyzed ([1]; 750/250 mg group): 0/12
Time to resolution of the five symptoms of COVID-19 shortened as the median value compared with placebo group by ([2]; ITT population, 375/125 mg group): 10.6 h
Time to resolution of 12 COVID-19 symptoms reduced compared to placebo group by a median of [2, 3]: 34.0 h
Time to resolution of 14 COVID-19 symptoms reduced compared to placebo group by a median of [2, 3]: 44.1 h
Time to resolution of the five COVID-19 symptoms shortened as the median compared with placebo group by [2, 3]: 24.3 h
Time to resolution of the five symptoms of COVID-19, significance vs placebo ([2]; mild/moderate patients, ITT population): no significant difference was observed
Time to resolution of five COVID-19 symptoms: 25% point [2, 4]: 104.3, — hour
Time to resolution of five COVID-19 symptoms: Difference of RMST (vs placebo) [2, 4]: -5.6 h
Time to resolution of five COVID-19 symptoms: Difference of median value (vs placebo) [2, 4]: -10.6 h
Time to resolution of five COVID-19 symptoms: Kaplan-Meier median value [2, 4]: 189.7 h
Time to resolution of five COVID-19 symptoms: Minimum value [2, 4]: 2.4 h
Time to resolution of five COVID-19 symptoms: Number of events (value in parentheses) [2, 4]: (73.0)
Time to resolution of five COVID-19 symptoms: Restricted mean survival time during 21 days (RMST) [2, 4]: 254.4 h
Time to resolution of five COVID-19 symptoms: Number of events ([2]; mild/moderate patients, ITT population, 375/125 mg group, 582 cases analyzed): 425
Time to resolution of five COVID-19 symptoms: Maximum value [2, 4]: 493.3 h
Time to resolution of five COVID-19 symptoms: 25% point [2, 5]: 99.2 h
Time to resolution of five COVID-19 symptoms: 75% point [2, 5]: 434.8 h
Time to resolution of five COVID-19 symptoms: Difference of RMST (vs placebo) [2, 5]: -14.9 h
Time to resolution of five COVID-19 symptoms: Difference of median value (vs placebo) [2, 5]: -23.0 h
Time to resolution of five COVID-19 symptoms: Kaplan-Meier median value [2, 5]: 177.3 h
Time to resolution of five COVID-19 symptoms: Minimum value [2, 5]: 9.4 h
Time to resolution of five COVID-19 symptoms: Number of events (value in parentheses) [2, 5]: (75.3)
Time to resolution of five COVID-19 symptoms: Restricted mean survival time during 21 days (RMST) [2, 5]: 245.1 h
Time to resolution of five COVID-19 symptoms: Number of events ([2]; mild/moderate patients, ITT population, 750/250 mg group, 575 cases analyzed): 433
Time to resolution of five COVID-19 symptoms: Maximum value [2, 5]: 493.1 h
Time to resolution of 12 COVID-19 symptoms: 25% point [2, 6]: 105.6, — hour
Time to resolution of 12 COVID-19 symptoms: Difference of RMST (vs placebo) [2, 6]: -16.9 h
Time to resolution of 12 COVID-19 symptoms: Difference of median value (vs placebo) [2, 6]: -34.0 h
Time to resolution of 12 COVID-19 symptoms: Kaplan-Meier median value [2, 6]: 179.2 h
Time to resolution of 12 COVID-19 symptoms: Minimum value [2, 6]: 2.4 h
Time to resolution of 12 COVID-19 symptoms: Number of events (value in parentheses) [2, 6]: (72.6)
Time to resolution of 12 COVID-19 symptoms: Restricted mean survival time during 21 days (RMST) [2, 6]: 253.9 h
Time to resolution of 14 COVID-19 symptoms: 25% point [2, 6]: 105.6, — hour
Time to resolution of 14 COVID-19 symptoms: Difference of RMST (vs placebo) [2, 6]: -20.1 h
Time to resolution of 14 COVID-19 symptoms: Difference of median value (vs placebo) [2, 6]: -44.1 h
Time to resolution of 14 COVID-19 symptoms: Kaplan-Meier median value [2, 6]: 187.8 h
Time to resolution of 14 COVID-19 symptoms: Minimum value [2, 6]: 2.4 h
Time to resolution of 14 COVID-19 symptoms: Number of events (value in parentheses) [2, 6]: (71.7)
Time to resolution of 14 COVID-19 symptoms: Restricted mean survival time during 21 days (RMST) [2, 6]: 257.9 h
Time to resolution of five COVID-19 symptoms: 25% point [2, 6]: 99.5 h
Time to resolution of five COVID-19 symptoms: 75% point [2, 6]: 424.8 h
Time to resolution of five COVID-19 symptoms: Difference of RMST (vs placebo) [2, 6]: -19.4 h
Time to resolution of five COVID-19 symptoms: Difference of median value (vs placebo) [2, 6]: -24.3 h
Time to resolution of five COVID-19 symptoms: Kaplan-Meier median value [2, 6]: 167.9 h
Time to resolution of five COVID-19 symptoms: Minimum value [2, 6]: 2.4 h
